Values of other authors as cited in US6465462B1, “Substituted triazolo pyridazine derivatives as inverse agonists of the GABAAα5 receptor subtype” (Merck Sharp & Dohme Ltd., priority 1996, dated 2002).

Columns and labels:
[1] = in vivo
[2] = reported by McNamara and Skelton, Psychobiology 21:101-108

SMILES: COC(=O)c1cc2c(cn1)[nH]c1ccccc12 [β-CCM]
- proconvulsant effect [1]: proconvulsant
- spatial learning in the Morris watermaze [2]: enhanced spatial learning
